Reference: publication PMC5055185, “Dual pharmacological inhibition of glutathione and thioredoxin systems synergizes to kill colorectal carcinoma stem cells” (Cancer Medicine, 2016)
“And” between values parts separate entries of the source, which are not always exact repeats. Equal values may be shown once.

Experiments:
[1] = tested on: OUMS‐36 embryonic fibroblasts; experiment: cell survival (live cell count by trypan blue exclusion, 5 days drug exposure), OUMS-36; type: cell-based, human; conditions: for IC50: OUMS36, cellular survival, 5 days
Protocol: Modified procedures of CTOS culture 16 were described elsewhere 10. […] The culture medium was serum‐free advanced DMEM/F‐12 (GIBCO, Waltham, MA) supplemented with FGF‐2 (10 ng/mL, ReproCell, Yokohama, Japan), penicillin ([…], Wako, Osaka, Japan), streptomycin (0.1 mg/mL,Wako), gentamicin (50 μg/mL, Wako), and fungizone (0.25 μg/mL, GIBCO). DLD‐1 and HCT116 CRC cell lines were purchased from JCRB Cell Bank (Osaka, Japan) and RIKEN BioResource Center (Ibaraki, Japan), respectively. In order to estimate pharmacological side effects against normal tissues, human diploid fibroblasts were purchased (JCRB Cell Bank) as model cells. The origins of the fibroblasts were as follows: OUMS‐36 (embryo), TIG‐3 (fetal lung), TIG‐111 (dermal fibroblasts [DFs] from individual), TIG‐119 (DFs from individual), and TIG‐102 (DFs from individual). Adult DFs were purchased from Kurabo (Osaka, Japan). CRC cell lines and fibroblasts were maintained under supplier‐recommended culture conditions. Since the culture conditions are different between fibroblasts and CTOSs, we need to be cautious about the interpretation of data (i.e., lateral comparison between them). […] Colorectal CTOSs display augmented survival through maintaining epithelial structure with E‐cadherin 16. On the other hand, the establishment of conventional cell lines (adherent culture) are much less efficient because constant cell division and autonomous survival are required for the procedure. When we choose CTOSs instead of cancer cell lines, we lose the equivalent condition (adherent culture) as a trade‐off.
Each drug's half‐maximal inhibitory concentration (IC50) was calculated based on live cell number ratios (drug treated/untreated × 100%) obtained from serial dilution of drug concentration. The length of drug exposure was 5 days. Each number of live cells was counted automatically by trypan blue exclusion (LUNA automated cell counter, Logos Biosystems, Anyang, South Korea). Cancer spheroids were dispersed with serial treatments (20 min each) of TrypLE™ and Accumax™. Thus, IC50 was determined based on cellular survival, but not on proliferation. We chose the survival index instead of the speed of growth because CTOSs in vitro show very slow proliferation (quiescence), which is one of the hallmarks of CSCs 2. The IC50 values of fibroblasts were accordingly determined based on cellular survival index during quiescence (by contact inhibition). […] To quantify the synergism of two distinct drugs, Combination Index (CI) was calculated 21. A CI value of about 1 (0.90–1.10) was defined as nearly additive and CI values more than (>1.10) and less than (<0.90) were defined as antagonism and synergism, respectively. IC50 and CI were determined using CompuSyn software (ComboSyn, Paramus, NK).

[2] = tested on: NRF2 target genes in colorectal CTOSs; experiment: qRT-PCR of NRF2 and TP53 target genes in colorectal CTOSs; type: cell-based, human
Protocol: (§1) Total RNA was purified using RNAiso Plus (Takara, Osaka, Japan). Reverse transcription was performed using PrimeScript™ with gDNA Eraser (Takara). For quantifying the copy number of each mRNA, we used a StepOne™ Real‐Time PCR System (Applied Biosystems, Waltham, MA) and the Taqman® method. Data were calculated according to the modified delta‐cycle of threshold (ΔCT) method. Normalized Log2 expression was defined as follows: (Log2 expression of a gene of interest) = 30 (arbitrary constant) + (CT of 18S rRNA) − (CT of a gene of interest). We used Log2 parameter for statistical analysis because mRNA expression follows a log‐normal distribution, whereas ΔCT follows normal distribution. A gene‐specific fluorescent probe was designed using a web‐based program (https://qpcr.probefinder.com/organism.jsp). […] Gene‐specific Taqman® probes were purchased from Life Technologies, (Waltham, MA, for Cat#, see Table S1 SpreadSheet2). For PCR, Thunderbird® Probe qPCR mix (Toyobo, Osaka, Japan) was used and the PCR conditions consisted of 40 cycles of two steps (95°C for 15 sec and 60°C for 50 sec).
In order to judge the effect of drug treatments on gene expression, a repeated measures one‐way analysis of variance (ANOVA) was used to determine the variance of Log2 expression from four different groups (untreated, auranofin, CB83, and piperlongumine) using SPSS. Subsequently, the effect of each drug was determined by a paired t test as a post hoc analysis. The P‐values < 0.05 were defined as statistically significant.
In order to estimate NRF2 compensation induced by pharmacological inhibition of TXNRD (auranofin), G6PD (CB83), or GSTπ (piperlongumine), we quantified gene expression of NRF2 target genes. Activation of NRF2 protein was confirmed by NRF2 phosphorylation (Fig. S5A).

[3] = tested on: NRF2 target genes in human embryonic fibroblasts OUMS36 or TIG-3; experiment: qRT-PCR of NRF2 and TP53 target genes in fibroblasts; type: cell-based; conditions: auranofin 2 μmol/L or piperlongumine 5 μmol/L for 24 h
Protocol: as §1
To investigate whether NRF2 compensation occurs in fibroblasts, we quantified gene induction of NRF2 target genes by auranofin (2 μmol/L for 24 h) or piperlongumine (5 μmol/L for 24 h). […] Basal phosphorylation of NRF2 was lower in fibroblasts, compared to CTOSs (Fig. S5B). The significance of expression changes due to the exposure were as follows: GCLM (Fig. S6, Aura: P = 0.001, up‐regulated, Pipe: P = 0.009, up‐regulated), TXNRD1 (Fig. S6, Aura: P = 0.001, up‐regulated, Pipe: P = 0.439), and G6PD (Fig. S6, Aura: P = 0.001, up‐regulated, Pipe: P = 0.130).
Human embryonic fibroblasts OUMS36 or TIG-3 was incubated with designated concentration of inhibitor for 24 hours. mRNA expression of each gene was quantified by real-time RT-PCR and expression level was indicated as relative Log2 expression. Each bar indicates mean value of Log2 expression (n=3 at different passage points). Error bar indicates standard deviation. P-values of difference are described in Results.

[4] = higher dose (auranofin 4, CB83 25, piperlongumine 10 μmol/L) for 24 h
[5] = lower dose (auranofin 2, CB83 12.5, piperlongumine 5 μmol/L) for 48 h

Row | Structure (SMILES) | IC50 [1] [µM] | Ratio of survived cells (Drugs treated/Untreated), Average ([1]; OUMS-36, Aura 1 microM) [%] | Ratio of survived cells (Drugs treated/Untreated), single passage points # ([1]; OUMS-36, Aura 1 microM) | Ratio of survived cells (Drugs treated/Untreated), Average ([1]; OUMS-36, Aura 2 microM) [%] | Ratio of survived cells (Drugs treated/Untreated), Average ([1]; OUMS-36, Aura 4 microM) [%] | G6PD mRNA expression change [2, 4] | GCLM mRNA expression change [2, 4] | TXNRD1 mRNA expression change [2, 4] | G6PD mRNA expression change [2, 5] | GCLC mRNA expression change [2, 5] | GCLM mRNA expression change [2, 5] | ME1 mRNA expression change [2, 5] | TXN mRNA expression change [2, 5] | TXNRD1 mRNA expression change [2, 5] | G6PD mRNA expression change [3] | GCLM mRNA expression change [3] | TXNRD1 mRNA expression change [3] | Ratio of survived cells (Drugs treated/Untreated), Average ([1]; OUMS-36, Pipe 2.5 microM) [%] | Ratio of survived cells (Drugs treated/Untreated), Average ([1]; OUMS-36, Pipe 5 microM) [%] | Ratio of survived cells (Drugs treated/Untreated), Average ([1]; OUMS-36, Pipe 10 microM) [%]
1 | CC[PH](CC)(CC)[Au][S][C@@H]1O[C@H](COC(C)=O)[C@@H](OC(C)=O)[C@H](OC(C)=O)[C@H]1OC(C)=O [Aura, Auranofin] | 1.79 | 87.8571 | 123% and 124% and 66% and 91% and 65% and 77% and 69% | 39.8571 | 6 | up‐regulated | up‐regulated | up‐regulated | up‐regulated | up‐regulated | up‐regulated | up‐regulated | up‐regulated | up‐regulated | up‐regulated | up‐regulated | up‐regulated |  |  | 
2 | COc1cc(/C=C/C(=O)N2CCC=CC2=O)cc(OC)c1OC [Pipe, Piperlongumine] | 9.36 |  |  |  |  | up‐regulated | up‐regulated | up‐regulated | up‐regulated |  | up‐regulated |  |  | up‐regulated |  | up‐regulated |  | 107.667 | 84.6667 | 49.1667
